{
  "source": "patent US20110217715A1",
  "about": "“GENE EXPRESSION IN DUCHENNE MUSCULAR DYSTROPHY” (CHILDREN'S HOSPITAL MEDICAL CENTER, priority 2008, published 2011)",
  "system": "mRNA expression in peripheral blood of individuals with DMD",
  "assay": "Whole-blood gene expression microarray: DMD administered prednisone or deflazacort vs DMD not administered steroid",
  "type": "in vivo, human",
  "experimental": "Fifteen ml of blood was collected from each individual into 6 PAXgene® Vacutainer® tubes (PreAnalytiX, Germany) by antecubital fossa venipuncture. PAXgene® tubes contain a proprietary reagent that immediately stabilizes RNA, thus reducing RNA degradation and minimizing gene expression changes following phlebotomy. The tubes were then inverted 20 times, then remained undisturbed for 2 h at room temperature (about 19° C. to about 22° C.), and then stored at -70° C. until processed. Total RNA was isolated using the Paxgene® blood RNA kit (PreAnalytiX, Germany) according to the manufacturers instructions. The RNA isolated is from all cells in whole blood. […] Sample labeling, hybridization to chips, and image scanning were performed using standard Affymetrix protocols. For each whole blood sample from control individuals and individuals with DMD, total RNA was labeled using the One-Cycle Target Labeling protocol and hybridized to the arrays. […] Double-stranded cDNA synthesis, biotin-labeled cRNA synthesis, and cRNA fragmentation were performed according to the Affymetrix GeneChip Eukaryotic Expression Analysis protocol. […] After hybridization, the array was washed and stained. […] After scanning the array, the raw probe level values for each probe were saved in Affymetrix.cel files. […] Statistical analyses, including t-test analyses, unsupervised hierarchical clustering, and principal component analyses were conducted using Genespring 7.2 software ([…]® 7, Silicon Genetics, Redwood City Calif.). […] Corrections for multiple comparisons used a Benjamini-Hochberg False Discovery Rate (FDR) of 0.05, disclosed in Tang et al., J Cereb Blood Flow Metab 26 (2006) 1089, which is expressly incorporated by reference herein in its entirety. […] Individuals with DMD were evaluated and had been diagnosed by a single board-certified pediatric neurologist. The diagnosis of DMD was based in part upon clinical history, examination findings, and selected muscle biopsies and was confirmed by molecular diagnostic testing. […] Sample processing and array hybridization, probe-level data analysis, and statistical analysis were identical to Example 1.",
  "key": {"[1]": {"conditions": "DMD administered deflazacort or prednisone vs not administered"}},
  "data": [
    {"smiles": "CC(=O)OCC(=O)[C@@]12N=C(C)O[C@@H]1C[C@H]1[C@@H]3CCC4=CC(=O)C=C[C@]4(C)[C@H]3[C@@H](O)C[C@@]12C", "note": "[deflazacort]", "values": [
      {"measurement": "expression levels of FKBP5", "setting": "[1]", "result": "up-regulated"},
      {"measurement": "expression levels of genes in the chondroitin sulfate biosynthesis pathway", "setting": "[1]", "result": "up-regulated"},
      {"measurement": "expression levels of haptoglobin and CD163 nucleic acids", "setting": "[1]", "result": "up-regulated"},
      {"measurement": "expression levels of lactotransferrin and lipocalin", "setting": "[1]", "result": "increased expression levels"},
      {"measurement": "expression of KFL10", "setting": "individuals administered prednisone, deflazacort, or both vs DMD not administered any agent", "result": "up-regulated"}
    ]}
  ]
}
